According to patent US20060046972A1, “Cytotoxic nucleoside analog compound 003 for treating cancer” (Parker Hughes Institute, priority 2004, published 2006):
Several values for one entry are separate records, joined by “and”; a condition that tells them apart may be missing. Identical values can stand only once.

Tested on: CD-1 mice
Assay: Acute toxicity of intraperitoneal bolus doses in CD-1 mice
Format: in vivo
Method: 1.2.8 Animals Female CD-1 mice (Body weight: ˜25 g; Age: 7 week old) were purchased, from Charles River Laboratories (Willmington, Mass., USA). MMTV Neu-mice [FVB/N-TgN(MMTV neu)202MUL; Jackson Laboratory, Bar Harbor, Me.] were bred to produce multiple litters. All mice were housed in microisolator cages (Lab Products, Inc., Maywood, N.Y., USA) containing autoclaved bedding in a controlled specific pathogen-free (SPF) environment (12-h light/12-h dark photoperiod, 22±1° C., 60±10% relative humidity), which is fully accredited by the USDA (United States Department of Agriculture). Adult male Lewis rats (Body weight: ˜160 g) were obtained from the specific pathogen-free (SPF) breeding facilities of Harlan Sprague Dawley (Indianapolis, Id., USA) at 14 weeks of age. All husbandry and experimental contact made with the mice and rats maintained SPF conditions. The rats were kept in microisolater cages (Allentown Caging Equipment Co., Inc., Allentown, N.J., USA) containing autoclaved food, water, and bedding. Animal studies were approved by Parker Hughes Institute Animal Care and Use Committee and all animal care procedures 1.5 conformed to the Guide for the Care and Use of Laboratory Animals (National Research Council, National Academy Press, Washington D.C. 1996, USA).
The toxicity profile of Compound 003 in CD-1 mice and Lewis rats was examined, using standard procedures as previously reported for other experimental drugs (Uckun, et al., 2003, Arzneimittelforschun. 53:357; Uckun, et al., 2002, Clin Cancer Res. 8: 1224; Uckun, et al., 2002, Antimicrob Agents Chemother. 46:3428). In brief, mice and rats were treated with intraperitoneal injections of vehicle or Compound 003 at multiple dose levels. Compound 003 was administered as a 0.2 mL (for mice) or 0.5 mL (for rats) bolus injection containing 10% DMSO as a vehicle. Animals were allowed free access to autoclaved standard pellet food and tap water throughout the experiments and monitored daily for morbidity and mortality. Animals were electively sacrificed on day 7 or day 30 to determine the toxicity of Compound 003 by examining their blood chemistry profiles, blood counts, and evaluating multiple organs for the presence of toxic lesions. Blood was collected by intracardiac puncture following anesthesia with ketamine:xylazine and immediately heparinized. The blood chemistry profiles were examined using a Synchron CX5CE Chemical Analyzer (Beckman Instruments, Inc., Fullerton, Calif., USA). Blood counts (red blood cells [RBC], white blood cells [WBC] and platelets [Plt]) were determined using a HESKA Vet ABC-Diff Hematology Analyzer (HESKA Corporation, Fort Collins, Colo., USA). Absolute neutrophil counts (ANC) and absolute lymphocyte counts (ALC) were calculated from WBC values after determining the percentages of neutrophils and lymphocytes by a manual differential count. At the time of necropsy, […] from mice (bone, bone marrow, brain, cecum, heart, kidney, large intestine, liver, lung, lymph node, ovary, pancreas, skeletal muscle, skin, small intestine, spleen, stomach, thymus, thyroid gland, urinary bladder, and uterus, as available) and 21 different tissues from rats (bone, bone marrow, brain, coagulating gland, epididymis, heart, large intestine, small intestine, kidney, liver, lung, pancreas, peripheral nerve/spinal nerve, skeletal muscle, skin, spinal cord, spleen, stomach, testes, thymus, urinary bladder) were collected within 15 minutes after sacrifice, gross pathological findings were documented, organs were preserved in 10% neutral phosphate buffered formalin, and processed for histopathological examination. For histopathologic studies, formalin fixed tissues were dehydrated and embedded in paraffin by routine methods. Glass slides with affixed 4-5 micron tissue sections were prepared and stained with Hemotoxylin and Eosin (H&E). […]

[1] = 10 mg/kg single i.p. bolus, Day 7
[2] = 10 mg/kg single i.p. bolus, Day 30
[3] = 20 mg/kg single i.p. bolus, Day 7
[4] = 20 mg/kg single i.p. bolus, Day 30
[5] = 40 mg/kg single i.p. bolus, Day 7

COC(=O)C(C)NP(=O)(OCC1OC(n2cc(C)c(=O)[nH]c2=O)CC1N=[N+]=[N-])Oc1ccc(OC)cc1 (stereo not shown) [Compound 003, 3′-azidothymidine 5′-[p-methoxyphenylmethoxyalaninyl phosphate]]
ALC [1]: 5.5 ± 0.0 ×10^9/L | ANC [1]: 1.2 ± 0.0 ×10^9/L | AST [1]: 137.1 ± 23.1 IU/L | Albumin [1]: 1.5 ± 0.0 g/dL | Ammonia [1]: 174.8 ± 11.8 µmol/L | Amylase [1]: 1728.6 ± 248.5 U/L | BUN [1]: 24.1 ± 0.8 mg/dL | Calcium [1]: 8.9 ± 0.2 mg/dL | Creatinine [1]: 0.3 ± 0.0 mg/dL | Mean Weight Change (g ± SEM) [1]: 0.16 ± 0.15 g | Mean Weight Change [%] [1]: (0.6 ± 0.6%) | Morbidity [1]: 0/20 | Phosphate [1]: 6.2 ± 0.2 mg/dL | RBC [1]: 9.4 ± 0.2 ×10^12/L | Total Bilirubin [1]: 0.7 ± 0.1 mg/dL | Total Protein [1]: 4.1 ± 0.1 g/dL | Toxic Organ Lesions [1]: 0/20 | Triglycerides [1]: 158.3 ± 18.2 mg/dL | WBC [1]: 7.3 ± 0.6 ×10^9/L | Weight Gain [1]: 13/20 | Weight Loss [1]: 7/20 | ALC [2]: 7.5 ×10^9/L and 7.5 ± 0.0 ×10^9/L | ANC [2]: 2.1 ± 0.0 ×10^9/L | AST [2]: 114.0 ± 12.4 IU/L | Albumin [2]: 1.2 ± 0.0 g/dL | Ammonia [2]: 205.3 ± 15.6 µmol/L | Amylase [2]: 1993.5 ± 415.9 U/L | BUN [2]: 21.6 ± 0.7 mg/dL | Calcium [2]: 8.2 ± 0.2 mg/dL | Creatinine [2]: 0.3 ± 0.0 mg/dL | Mean Weight Change (g ± SEM) [2]: 2.61 ± 0.45 g | Mean Weight Change [%] [2]: (10.4 ± 1.8%) | Morbidity [2]: 0/20 | Phosphate [2]: 5.7 ± 0.2 mg/dL | RBC [2]: 9.1 ± 0.1 ×10^12/L | Total Bilirubin [2]: 0.4 ± 0.0 mg/dL | Total Protein [2]: 4.0 ± 0.1 g/dL | Toxic Organ Lesions [2]: 0/20 | Triglycerides [2]: 88.1 ± 10.3 mg/dL | WBC [2]: 9.9 ± 1.0 ×10^9/L | Weight Gain [2]: 18/20 | Weight Loss [2]: 2/20 | ALC [3]: 6.9 ± 0.0 ×10^9/L | ANC [3]: 1.6 ± 0.0 ×10^9/L | AST [3]: 100.0 ± 6.7 IU/L | Albumin [3]: 1.4 ± 0.0 g/dL | Ammonia [3]: 201.9 ± 15.0 µmol/L | Amylase [3]: 1810.3 ± 268.8 U/L | BUN [3]: 23.7 ± 0.7 mg/dL | Calcium [3]: 8.9 ± 0.1 mg/dL | Creatinine [3]: 0.4 ± 0.0 mg/dL | Mean Weight Change (g ± SEM) [3]: -0.04 ± 0.16 g | Mean Weight Change [%] [3]: (−0.1 ± 0.7%) | Morbidity [3]: 0/20 | Phosphate [3]: 6.6 ± 0.2 mg/dL | RBC [3]: 9.0 ± 0.3 ×10^12/L | Total Bilirubin [3]: 0.5 ± 0.1 mg/dL | Total Protein [3]: 4.2 ± 0.1 g/dL | Toxic Organ Lesions [3]: 0/20 | Triglycerides [3]: 144.3 ± 17.5 mg/dL | WBC [3]: 8.7 ± 0.8 ×10^9/L | Weight Gain [3]: 10/20 | Weight Loss [3]: 10/20 | ALC [4]: 6.8 ×10^9/L and 6.8 ± 0.0 ×10^9/L | ANC [4]: 2.0 ± 0.0 ×10^9/L | AST [4]: 107.8 ± 13.2 IU/L | Albumin [4]: 1.1 ± 0.0 g/dL | Ammonia [4]: 150.5 ± 10.3 µmol/L | Amylase [4]: 1587.6 ± 261.5 U/L | BUN [4]: 20.4 ± 0.6 mg/dL | Calcium [4]: 8.1 ± 0.1 mg/dL | Creatinine [4]: 0.3 ± 0.0 mg/dL | Mean Weight Change (g ± SEM) [4]: 3.01 ± 0.28 g | Mean Weight Change [%] [4]: (12.4 ± 1.1%) | Morbidity [4]: 0/20 | Phosphate [4]: 6.2 ± 0.1 mg/dL | RBC [4]: 9.1 ± 0.2 ×10^12/L | Total Bilirubin [4]: 0.5 ± 0.0 mg/dL | Total Protein [4]: 3.8 ± 0.1 g/dL | Toxic Organ Lesions [4]: 0/20 | Triglycerides [4]: 84.6 ± 7.2 mg/dL | WBC [4]: 9.3 ± 0.8 ×10^9/L | Weight Gain [4]: 20/20 | Weight Loss [4]: 0/20 | tubular dilation (20 mg/kg, after the 30 day observation period): 2/20 | ALC [5]: 5.5 ± 0.0 ×10^9/L | ANC [5]: 1.7 ± 0.0 ×10^9/L | AST [5]: 134.3 ± 23.2 IU/L
